Like-named read-outs stand apart in the source and are kept apart here.
What was measured:
[1] = tested on: tobacco plants with FMP37t-h, PAT and 2mEPSPS (pFCO112); experiment: Glasshouse trial of tobacco with three tolerance genes; format: in vivo, Nicotiana tobacum; conditions: 9 DAT
Procedure: A binary vector for tobacco transformation is, for example, constructed with the CaMV35 promoter driving the expression of the gene FMP37t-h (SEQ ID No. 15), with a codon usage optimized for the expression in dicotyledoneous plants and at its 5′ extremity was added a sequence coding for an OTP, and further upstream a sequence TEV (Tobacco etch virus) to improve the stability of the mRNA in plants followed by the CaMV35S terminator. The nucleotide sequence of the gene FMP37t-h is given in SEQ ID No. 15. Additionally, the transformation vector also contains a PAT gene cassette in which the gene is driven by a CaVM35S promoter and followed by a CaMV35S terminator for glufosinate based selection during the transformation process and a 2mEPSPS gene cassette in which the gene is driven by an histone promoter from Arabidopsis to confer tolerance to the herbicide glyphosate to the transformed plants (see FIG. 3 H). The binary vector was called pFCO112. The above vector was used to transform leaf disks obtained from Nicotiana tobacum plants, according to Example 3.
Transgenic tobacco plants were transferred to the greenhouse and treated with glyphosate at a rate of 1121 g Al/ha. Seeds were produced from such tolerant tobacco plants and harvested. These seeds were put on soil to germinate in the glasshouse. Three to four weeks later, 50 plantlets per event were transferred to single pots. Two weeks later, plants of a size 4-6 cm were sprayed either with:
[…] […] Non-transgenic tobacco plants were completely killed by treatment using one or more of the above herbicides.

[2] = molecular target: T1, Arabidopsis thaliana HPPD (SEQ ID No. 10) (Arabidopsis thaliana, UniProt P93836); experiment: Spectrophotometric HPPD activity assay in presence of HPPD inhibitors; format: biochemical; conditions: for inhibition at 5 µM: read-out: percentage of inhibition
T1 construct: made in house; host or cells: E. coli K-12 BL21 (pQE30-AtHPPD)
T1 sequence (P93836 with tags, fused parts or gaps): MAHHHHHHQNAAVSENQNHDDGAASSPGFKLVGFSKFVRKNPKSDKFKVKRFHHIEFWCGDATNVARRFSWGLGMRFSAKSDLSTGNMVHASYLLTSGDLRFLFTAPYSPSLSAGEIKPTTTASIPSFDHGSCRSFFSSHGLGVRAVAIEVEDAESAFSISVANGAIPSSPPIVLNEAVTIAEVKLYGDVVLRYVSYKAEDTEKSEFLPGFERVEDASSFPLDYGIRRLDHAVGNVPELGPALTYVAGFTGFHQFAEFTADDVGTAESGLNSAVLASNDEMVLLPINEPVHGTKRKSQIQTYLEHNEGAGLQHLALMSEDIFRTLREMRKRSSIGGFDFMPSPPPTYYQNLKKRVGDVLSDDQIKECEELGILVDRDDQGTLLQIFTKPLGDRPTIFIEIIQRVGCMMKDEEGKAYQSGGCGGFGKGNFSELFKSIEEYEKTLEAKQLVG

[3] = tested on: leaf disks of tobacco plants containing HPPD SEQ ID No. 11 (Arabidopsis thaliana); experiment: Leaf disk regeneration on media with HPPD inhibitors; format: cell-based, Nicotiana tabacum; conditions: 10^−6 M, 6 weeks
Procedure: (§1) At the end of the experiments the level of regeneration was evaluated as followed:
(§2) “−” means that the leaf disks looked the same as leaf disk from wild type tobacco plants on media supplemented with the inhibitor mentioned above. “++++” means that the leaf disks looked like the leaf disks from the wild type tobacco plants on media without inhibitor. “+”, “++”, and “+++” indicate regenerated leaf disks were heavily (+), medium (++) and less (+++) affected by the presence of the inhibitors.

[4] = tested on: leaf disks of tobacco plants containing HPPD SEQ ID No. 7 (Blepharisma japonicum); experiment: as above; format: cell-based, Nicotiana tabacum; set-up: key to the marks not given beside the values; conditions: 10^−6 M, 6 weeks
Procedure: as §1, §2

[5] = molecular target: T2, Blepharisma japonicum HPPD (SEQ ID No. 5) (Blepharisma japonicum, UniProt A8R3H6); experiment: HPLC assay of HPPD in vitro kinetic properties; format: biochemical
Procedure: Km, Vmax, and kcat values for different HPPD enzyme preparations and Ki, K1=Kon, and K−1=Koff for different HPPD inhibitors were determined using a HPLC assay for measurements of HPPD activity. […] All assays were started by the addition of HPPD enzyme to the assay mixture and stopped at a series of times between 0 and 240 s by addition of 200 μl of the reaction mixture to reaction assay tubes containing 20 μl 10% perchloric acid. Precipitated protein was pelleted by a 5 minute centrifugation at 10,000 g. […] A standard set of concentrations of HGA were used to provide a standard curve in order to calibrate the 292 nm absorbance of the HGA peak versus HGA concentration.
For Km and Vmax value determinations the initial rates of the HPPD reaction at different substrate concentrations were determined from plots of HGA formed versus time and fitted to the Michaelis-Menten equation for unireactant enzymes using the ID Business Solutions Ltd. (www.idbs.com) XLfit software suite. For the determination of Ki, K1=Kon, and Ki=Koff values the time-courses of the HPPD reaction at different inhibitor concentrations were fitted to the equations for Mechanism A, competitive inhibition, for tight-binding inhibitors (Cha, S. (1975) Tight-binding inhibitors—I. Kinetic behaviour. Biochemical Pharmacology 24, 2177-2185) using the ID Business Solutions Ltd. XLfit software suite

[6] = molecular target: T1, Arabidopsis thaliana HPPD (SEQ ID No. 10); experiment: HPLC assay of HPPD in vitro kinetic properties; format: biochemical; conditions: substrate HPP 10-400 μM, pH 7.8
Procedure: Km, Vmax, and kcat values for different HPPD enzyme preparations and Ki, K1=Kon, and K−1=Koff for different HPPD inhibitors were determined using a HPLC assay for measurements of HPPD activity. […] All assays were started by the addition of HPPD enzyme to the assay mixture and stopped at a series of times between 0 and 240 s by addition of 200 μl of the reaction mixture to reaction assay tubes containing 20 μl 10% perchloric acid. Precipitated protein was pelleted by a 5 minute centrifugation at 10,000 g.
For Km and Vmax value determinations the initial rates of the HPPD reaction at different substrate concentrations were determined from plots of HGA formed versus time and fitted to the Michaelis-Menten equation for unireactant enzymes using the ID Business Solutions Ltd. (www.idbs.com) XLfit software suite.

[7] = molecular target: T2, Blepharisma japonicum HPPD (SEQ ID No. 5); experiment: biochemical; conditions: for inhibition at 5 µM: read-out: percentage of inhibition
[8] = 5.0 × 10^−6M inhibitor (Table 4)
[9] = substrate HPP 10-400 μM, pH 7.8

T2 sequence (A8R3H6 entry or part of it): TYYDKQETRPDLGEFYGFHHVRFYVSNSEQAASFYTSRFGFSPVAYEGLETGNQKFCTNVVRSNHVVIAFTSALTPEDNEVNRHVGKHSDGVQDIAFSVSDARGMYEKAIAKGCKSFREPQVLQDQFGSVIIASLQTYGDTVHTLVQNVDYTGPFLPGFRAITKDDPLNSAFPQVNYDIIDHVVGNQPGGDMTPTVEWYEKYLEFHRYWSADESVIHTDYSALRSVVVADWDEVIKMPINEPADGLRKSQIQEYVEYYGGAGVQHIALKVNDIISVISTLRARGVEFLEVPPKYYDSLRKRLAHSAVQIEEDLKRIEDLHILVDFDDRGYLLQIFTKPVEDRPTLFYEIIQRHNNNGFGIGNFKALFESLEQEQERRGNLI

SMILES: CP(=O)(O)CCC(N)C(=O)O (stereo not shown) [Glufosinate-ammonium]
- number of plants in Class I (no injuries) ([1]; line 634, 1000 g AI/ha): 10
- number of plants in Class II (injury: 10-40%) ([1]; line 634, 1000 g AI/ha): 0
- number of plants in Class III (injury: 41-100%) ([1]; line 634, 1000 g AI/ha): 0
- number of plants in Class I (no injuries) ([1]; line 713, 1000 g AI/ha): 10
- number of plants in Class II (injury: 10-40%) ([1]; line 713, 1000 g AI/ha): 0
- number of plants in Class III (injury: 41-100%) ([1]; line 713, 1000 g AI/ha): 0

SMILES: CS(=O)(=O)c1ccc(C(=O)C2C(=O)CCCC2=O)c(Cl)c1COCC1CCCO1 (stereo not shown) [Tefuryltrione, 2-[2-chloro-4-(methylsulfonyl)-3-[[(tetrahydro-2-furanyl)methoxy]methyl]benzoyl]-1,3-cyclohexanedione]
- inhibition at 5 µM [2, 8]: 100%

SMILES: CS(=O)(=O)c1ccc(C(=O)C2C(=O)CCCC2=O)c([N+](=O)[O-])c1 [Mesotrione, 2-[4-(methylsulfonyl)-2-nitrobenzoyl]-1,3-cyclohexanedione]
- IC50 [2]: < 2.51 µM
- inhibition at 5 µM [2, 8]: 86%
- level of regeneration of leaf disks [3]: −
- level of regeneration of leaf disks [4]: ++++

SMILES: CS(=O)(=O)c1cc(C(F)(F)F)ccc1C(=O)C(C#N)C(=O)C1CC1 (stereo not shown) [Diketonitrile, 2-cyano-3-cyclopropyl-1-(2-methylsulphonyl-4-trifluoromethylphenyl)-propane-1,3-dione]
- inhibition at 5 µM [2, 8]: 87%
- Ki [5]: 6.6 µM

SMILES: O=C(O)CNCP(=O)(O)O [Glyphosate]
- number of plants in Class I (no injuries) ([1]; line 634, 1121 g AI/ha): 10
- number of plants in Class II (injury: 10-40%) ([1]; line 634, 1121 g AI/ha): 0
- number of plants in Class III (injury: 41-100%) ([1]; line 634, 1121 g AI/ha): 0
- number of plants in Class I (no injuries) ([1]; line 713, 1121 g AI/ha): 10
- number of plants in Class II (injury: 10-40%) ([1]; line 713, 1121 g AI/ha): 0
- number of plants in Class III (injury: 41-100%) ([1]; line 713, 1121 g AI/ha): 0

SMILES: O=C(O)C(=O)Cc1ccc(O)cc1 [HPP, para-hydroxyphenylpyruvate]
- Km [6]: 6.3 µM
- Vmax [6]: 1.2 µM
- Km [5, 9]: 83 µM
- Vmax [5, 9]: 0.1 µM

SMILES: Cc1nn(C)c(O)c1C(=O)c1ccc(C(F)(F)F)cc1S(C)(=O)=O [Pyrasulfotole]
- pI50 ([2]; 2 mM HPP, 3 minutes incubation): 5.4
- percentage of inhibition [2, 8]: 69%
- pI50 ([7]; 2 mM HPP, 3 minutes incubation): 4.4
- percentage of inhibition [7, 8]: 0%

SMILES: Cc1ccc(S(=O)(=O)Oc2c(C(=O)c3ccc(Cl)cc3Cl)c(C)nn2C)cc1 [Pyrazolate]
- inhibition at 5 µM [2, 8]: 61%
- IC50 ([2]; read-out: pI50 (converted)): 3.98 µM
- IC50 [7]: 20 µM
- inhibition at 5 µM [7]: 0%

SMILES: Cc1ccc(C(=O)COc2c(C(=O)c3ccc(Cl)c(C)c3Cl)c(C)nn2C)cc1 [Benzofenap]
- IC50 ([2]; read-out: pI50 (converted)): < 2.51 µM
- inhibition at 5 µM [2]: 90%
- IC50 ([7]; read-out: pI50 (converted)): 3.16 µM
- inhibition at 5 µM [7]: 85%

SMILES: CS(=O)(=O)c1ccc(C(=O)C2C(=O)CCCC2=O)c(Cl)c1 [Sulcotrione, 2-[2-chloro-4-(methylsulfonyl)benzoyl]-1,3-cyclohexanedione]
- IC50 [2]: < 2.51 µM
- inhibition at 5 µM [2]: 74%

Source: patent publication US20110191897A1, “Plants Tolerant to HPPD Inhibitor Herbicides” (Bayer CropScience AG, priority 2009, published 2011)
